Laboratory results published in patent US20100267561A1, “HERBICIDAL PYRIDAZINONE DERIVATIVES” (priority 2007, published 2010).

How the values were obtained:
Assay type in all cases: in vivo
[1] = system: barnyardgrass (Echinochloa crus-galli); assay: Test A pre-/postemergence plant response
Outline: (§1)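 Seeds in loam soil/sand blend treated preemergence by directed soil spray, with simultaneous postemergence spray on 2–10 cm plants at one- to two-leaf stage; compounds in non-phytotoxic solvent with surfactant. Injury visually rated versus untreated controls after about 10 days in greenhouse, 0 (no effect) to 100 (complete control).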

[2] = system: corn (Zea mays); assay: Test A pre-/postemergence plant response
Outline: as §1

[3] = system: giant foxtail (Setaria faberi); assay: Test A pre-/postemergence plant response
Outline: as §1

[4] = system: large crabgrass (Digitaria sanguinalis); assay: Test A pre-/postemergence plant response
Outline: as §1

[5] = system: morningglory (Ipomoea coccinea); assay: Test A pre-/postemergence plant response
Outline: as §1

[6] = system: pigweed (Amaranthus retroflexus); assay: Test A pre-/postemergence plant response
Outline: as §1

[7] = system: velvetleaf (Abutilon theophrasti); assay: Test A pre-/postemergence plant response
Outline: as §1

[8] = system: wheat (Triticum aestivum); assay: Test A pre-/postemergence plant response
Outline: as §1

[9] = system: blackgrass (Alopecurus myosuroides); assay: Test B pre-/postemergence plant response; conditions: for Blackgrass plant response rating: 8 g ai/ha
Source text: (§2) Seeds of plant species selected from blackgrass (Alopecurus myosuroides), downy bromegrass (Bromus tectorum), green foxtail (Setaria viridis), Italian ryegrass (Lolium multiflorum), wheat (Triticum aestivum), wild oat (Avena fatua), catchweed bedstraw (Galium aparine), bermudagrass (Cynodon dactylon), surinam grass (Brachiaria decumbens), cocklebur (Xanthium strumarium), corn (Zea mays), large crabgrass (Digitaria sanguinalis), woolly cupgrass (Eriochloa villosa), giant foxtail (Setaria faberii), goosegrass (Eleusine indica), johnsongrass (Sorghum halepense), kochia (Kochia scoparia), lambsquarters (Chenopodium album), morningglory (Ipomoea coccinea), eastern black (E.B.) nightshade (Solanum ptycanthum), yellow nutsedge (Cyperus esculentus), pigweed (Amaranthus retroflexus), common ragweed (Ambrosia elation), Russian thistle (Salsola iberica), soybean (Glycine max), common (oilseed) sunflower (Helianthus annuus), and velvetleaf (Abutilon theophrasti) were planted and treated preemergence with test chemicals formulated in a non-phytotoxic solvent mixture which included a surfactant.
(§3) At the same time, plants selected from these crop and weed species and also winter barley (Hordeum vulgare), canarygrass (Phalaris minor), chickweed (Stellaria media) and windgrass (Apera spica-venti) were treated with postemergence applications of some of the test chemicals formulated in the same manner. Plants ranged in height from 2 to 18 cm (1- to 4-leaf stage) for postemergence treatments.
(§4) Plant species in the flooded paddy test consisted of rice (Oryza sativa), umbrella sedge (Cyperus difformis), ducksalad (Heteranthera limosa) and barnyardgrass (Echinochloa crus-galli) grown to the 2-leaf stage for testing. At time of treatment, test pots were flooded to 3 cm above the soil surface, treated by application of test compounds directly to the paddy water, and then maintained at that water depth for the duration of the test. Treated plants and controls were maintained in a greenhouse for 13 to 15 days, after which time all species were compared to controls and visually evaluated. Plant response ratings, summarized in Table B, are based on a scale of 0 to 100 where 0 is no effect and 100 is complete control. A dash (-) response means no test result.

[10] = system: catchweed bedstraw (Galium aparine); assay: Test B pre-/postemergence plant response; conditions: Preemergence; for Galium plant response rating: 8 g ai/ha
Source text: as §2, §3, §4

[11] = system: yellow nutsedge (Cyperus esculentus); assay: Test B pre-/postemergence plant response; conditions: for Nutsedge, Yellow plant response rating: 8 g ai/ha
Source text: as §2, §3, §4

[12] = Postemergence, 125 g ai/ha, 0 to 100 scale, 0 no effect, 100 complete control
[13] = Postemergence, 500 g ai/ha, 0 to 100 scale, 0 no effect, 100 complete control
[14] = Preemergence, 125 g ai/ha, 0 to 100 scale (0 no effect, 100 complete control)
[15] = Preemergence, 500 g ai/ha, 0 to 100 scale (0 no effect, 100 complete control)
[16] = Preemergence, 16 g ai/ha, scale 0 to 100 (0 no effect, 100 complete control)
[17] = Preemergence, 31 g ai/ha, 0 to 100 scale, 0 no effect, 100 complete control
[18] = Preemergence, 62 g ai/ha, scale 0 to 100
[19] = 16 g ai/ha, scale 0 to 100 (0 no effect, 100 complete control)
[20] = 31 g ai/ha, 0 to 100 scale, 0 no effect, 100 complete control
[21] = Postemergence, 16 g ai/ha, scale 0 to 100
[22] = Postemergence, 31 g ai/ha, scale 0 to 100, 0 no effect, 100 complete control
[23] = Postemergence, 62 g ai/ha, scale 0 to 100
[24] = Postemergence, 31 g ai/ha, 0 to 100 scale (0 no effect, 100 complete control)
[25] = Preemergence, 31 g ai/ha, 0 to 100 scale, 0 is no effect, 100 is complete control

Compound: Cn1ncc(O)c(-c2nn(-c3ccc(Cl)cc3)cc2Br)c1=O [Compound 31]
- Plant response rating, Barnyardgrass [1, 12]: 60
- Plant response rating, Barnyardgrass [1, 13]: 90
- Plant response rating, Barnyardgrass [1, 14]: 100
- Plant response rating, Barnyardgrass [1, 15]: 100
- Plant response rating, Corn [2, 12]: 10
- Plant response rating, Corn [2, 13]: 70
- Plant response rating, Corn [2, 14]: 50
- Plant response rating, Corn [2, 15]: 70
- Plant response rating, Foxtail, Giant [3, 12]: 90
- Plant response rating, Foxtail, Giant [3, 13]: 90
- Plant response rating, Foxtail, Giant [3, 14]: 100
- Plant response rating, Foxtail, Giant [3, 15]: 100
- Plant response rating, Crabgrass, Large [4, 12]: 60
- Plant response rating, Crabgrass, Large [4, 13]: 90
- Plant response rating, Crabgrass, Large [4, 14]: 100
- Plant response rating, Crabgrass, Large [4, 15]: 100
- Plant response rating, Morningglory [5, 12]: 0
- Plant response rating, Morningglory [5, 13]: 0
- Plant response rating, Morningglory [5, 14]: 0
- Plant response rating, Morningglory [5, 15]: 0
- Plant response rating, Pigweed [6, 12]: 0
- Plant response rating, Pigweed [6, 13]: 0
- Plant response rating, Pigweed [6, 14]: 0
- Plant response rating, Pigweed [6, 15]: 20
- Plant response rating, Velvetleaf [7, 12]: 0
- Plant response rating, Velvetleaf [7, 13]: 0
- Plant response rating, Velvetleaf [7, 14]: 0
- Plant response rating, Velvetleaf [7, 15]: 0
- Plant response rating, Wheat [8, 12]: 40
- Plant response rating, Wheat [8, 13]: 60
- Plant response rating, Wheat [8, 14]: 60
- Plant response rating, Wheat [8, 15]: 90
- Plant response rating, Blackgrass [9, 16]: 90
- Plant response rating, Blackgrass [9, 17]: 98
- Plant response rating, Blackgrass [9, 18]: 100
- Blackgrass plant response rating ([9]; Preemergence, scale 0 to 100): 80
- Plant response rating, Galium [10, 19]: 0
- Plant response rating, Galium [10, 20]: 0
- Plant response rating, Galium ([10]; 62 g ai/ha, scale 0 to 100): 50
- Galium plant response rating ([10]; scale 0 to 100): 0
- Plant response rating, Nutsedge, Yellow [11, 16]: 0
- Plant response rating, Nutsedge, Yellow [11, 17]: 0
- Plant response rating, Nutsedge, Yellow [11, 18]: 0
- Nutsedge, Yellow plant response rating ([11]; Preemergence, scale 0 to 100): 0

Compound: CCc1cc(-c2ccc(C(F)(F)F)cc2)nn1-c1c(OS(C)(=O)=O)cnn(C)c1=O [Compound 19]
- Plant response rating, Barnyardgrass [1, 12]: 100
- Plant response rating, Barnyardgrass [1, 13]: 100
- Plant response rating, Barnyardgrass [1, 14]: 100
- Plant response rating, Barnyardgrass [1, 15]: 100
- Plant response rating, Corn [2, 12]: 90
- Plant response rating, Corn [2, 13]: 90
- Plant response rating, Corn [2, 14]: 80
- Plant response rating, Corn [2, 15]: 90
- Plant response rating, Foxtail, Giant [3, 12]: 100
- Plant response rating, Foxtail, Giant [3, 13]: 100
- Plant response rating, Foxtail, Giant [3, 14]: 100
- Plant response rating, Foxtail, Giant [3, 15]: 100
- Plant response rating, Crabgrass, Large [4, 12]: 90
- Plant response rating, Crabgrass, Large [4, 13]: 100
- Plant response rating, Crabgrass, Large [4, 14]: 100
- Plant response rating, Crabgrass, Large [4, 15]: 100
- Plant response rating, Morningglory [5, 12]: 0
- Plant response rating, Morningglory [5, 13]: 0
- Plant response rating, Morningglory [5, 14]: 0
- Plant response rating, Morningglory [5, 15]: 0
- Plant response rating, Pigweed [6, 12]: 0
- Plant response rating, Pigweed [6, 13]: 0
- Plant response rating, Pigweed [6, 14]: 0
- Plant response rating, Pigweed [6, 15]: 0
- Plant response rating, Velvetleaf [7, 12]: 0
- Plant response rating, Velvetleaf [7, 13]: 0
- Plant response rating, Velvetleaf [7, 14]: 0
- Plant response rating, Velvetleaf [7, 15]: 0
- Plant response rating, Wheat [8, 12]: 60
- Plant response rating, Wheat [8, 13]: 90
- Plant response rating, Wheat [8, 14]: 90
- Plant response rating, Wheat [8, 15]: 100
- Blackgrass plant response rating ([9]; postemergence, 0-100 scale): 80
- Plant response rating, Blackgrass [9, 21]: 85
- Plant response rating, Blackgrass [9, 22]: 90
- Plant response rating, Blackgrass [9, 23]: 95
- Plant response rating, Blackgrass [9, 16]: 100
- Plant response rating, Blackgrass [9, 17]: 100
- Plant response rating, Blackgrass [9, 18]: 100
- Blackgrass plant response rating ([9]; Preemergence, scale 0 to 100): 95
- Plant response rating, Galium [10, 20]: 0
- Plant response rating, Galium ([10]; 62 g ai/ha, scale 0 to 100): 0
- Galium plant response rating ([10]; scale 0 to 100): 0
- Nutsedge, Yellow plant response rating ([11]; postemergence, 0-100 scale): 0
- Plant response rating, Nutsedge, Yellow [11, 21]: 0
- Plant response rating, Nutsedge, Yellow [11, 22]: 0
- Plant response rating, Nutsedge, Yellow [11, 23]: 30
- Plant response rating, Nutsedge, Yellow [11, 16]: 0
- Plant response rating, Nutsedge, Yellow [11, 17]: 0
- Plant response rating, Nutsedge, Yellow [11, 18]: 0
- Nutsedge, Yellow plant response rating ([11]; Preemergence, scale 0 to 100): 0

Compound: CCc1cc(-c2ccc(F)cc2)nn1-c1c(O)cnn(C)c1=O [Compound 25]
- Plant response rating, Barnyardgrass [1, 24]: 80
- Plant response rating, Barnyardgrass [1, 12]: 100
- Plant response rating, Barnyardgrass [1, 25]: 50
- Plant response rating, Barnyardgrass [1, 14]: 100
- Plant response rating, Corn [2, 24]: 20
- Plant response rating, Corn [2, 12]: 80
- Plant response rating, Corn [2, 25]: 0
- Plant response rating, Corn [2, 14]: 50
- Plant response rating, Foxtail, Giant [3, 24]: 90
- Plant response rating, Foxtail, Giant [3, 12]: 100
- Plant response rating, Foxtail, Giant [3, 25]: 40
- Plant response rating, Foxtail, Giant [3, 14]: 100
- Plant response rating, Crabgrass, Large [4, 24]: 60
- Plant response rating, Crabgrass, Large [4, 12]: 90
- Plant response rating, Crabgrass, Large [4, 25]: 20
- Plant response rating, Crabgrass, Large [4, 14]: 90
- Plant response rating, Morningglory [5, 24]: 0
- Plant response rating, Morningglory [5, 12]: 0
- Plant response rating, Morningglory [5, 25]: 0
- Plant response rating, Morningglory [5, 14]: 0
- Plant response rating, Pigweed [6, 24]: 0
- Plant response rating, Pigweed [6, 12]: 0
- Plant response rating, Pigweed [6, 25]: 0
- Plant response rating, Pigweed [6, 14]: 0
- Plant response rating, Velvetleaf [7, 24]: 0
- Plant response rating, Velvetleaf [7, 12]: 0
- Plant response rating, Velvetleaf [7, 25]: 0
- Plant response rating, Velvetleaf [7, 14]: 0
- Plant response rating, Wheat [8, 24]: 0
- Plant response rating, Wheat [8, 12]: 20
- Plant response rating, Wheat [8, 25]: 0
- Plant response rating, Wheat [8, 14]: 50
- Blackgrass plant response rating ([9]; postemergence, 0-100 scale): 0
- Plant response rating, Blackgrass [9, 21]: 40
- Plant response rating, Blackgrass [9, 22]: 75
- Plant response rating, Blackgrass [9, 23]: 95
- Plant response rating, Blackgrass [9, 18]: 90
- Blackgrass plant response rating ([9]; Preemergence, scale 0 to 100): 70
- Plant response rating, Galium [10, 19]: 0
- Plant response rating, Galium [10, 20]: 0
- Plant response rating, Galium ([10]; 62 g ai/ha, scale 0 to 100): 0
- Galium plant response rating ([10]; scale 0 to 100): 0
- Nutsedge, Yellow plant response rating ([11]; postemergence, 0-100 scale): 0
- Plant response rating, Nutsedge, Yellow [11, 21]: 0
- Plant response rating, Nutsedge, Yellow [11, 22]: 0
- Plant response rating, Nutsedge, Yellow [11, 23]: 0
- Plant response rating, Nutsedge, Yellow [11, 16]: 0
- Plant response rating, Nutsedge, Yellow [11, 17]: 0
- Plant response rating, Nutsedge, Yellow [11, 18]: 0
- Nutsedge, Yellow plant response rating ([11]; Preemergence, scale 0 to 100): 0
